Tests used:
[1] = test system: flank organs of male intact Golden Syrian hamsters; test: Hamster flank organ hair growth (hair mass) after topical application; assay type: in vivo; conditions: for Flank Organ Hair Mass, Treated: topical 10-25 μl once a day; for Flank Organ Hair Mass, Treated / % Inhibition of hair mass (+SEM): 18 days; for % Inhibition of hair mass (+SEM): treated organ vs vehicle-treated organ of same animal; for Hair shaft structure, microscopic examination: hair shafts harvested from flank organs
Procedure: A vehicle or carrier was prepared having the following composition:
The compound BBD was mixed with separate portions of the foregoing vehicle to provide specimens containing 1,2,5,10, and 20% by weight of the inhibitor respectively.
Five groups (seven or eight animals in each group) of male intact Golden Syrian hamsters were provided. These animals are considered acceptable models for human beard hair growth in that they display oval shaped flank organs, one on each side, each about 8 mm. in major diameter, which grow thick black and coarse hair similar to human beard hair. These organs produce hair in response to androgens in the hamster. The flank organs of each hamster were depilated by applying a thioglycolate-based chemical depilatory (Surgex), and to one organ of each animal was applied 10-25 μl. of vehicle alone once a day, while to the other organ of each animal was applied an equal amount of vehicle containing inhibitor. After 2 1/2 weeks of such applications (five days a week for a total of eighteen days), the flank organs were shaved and the amount of recovered hair (hair mass) from each was weighed. The extent of reduction in hair growth by the inhibitor was expressed as the percent decrease in hair mass on the organ treated with inhibitor as compared to the organ treated with vehicle alone. As a control, one additional control group of eight animals had both flank organs of each animal treated with vehicle alone.

transglutaminase = test: Inhibiting effect on transglutaminase activity; assay type: biochemical

Inhibiting effect on transglutaminase activity (transglutaminase): dose related
Structure (SMILES): O=C(N[C@@H](Cc1ccccc1)C(=O)NCC1CC(Br)=NO1)OCc1ccccc1 (some centres unmarked) [BBD, 3-bromo-5-(N-benzyloxycarbonyl-1-phenylalanamido-methyl)-4,5-dihydroisoxazole]
Flank Organ Hair Mass, Treated ([1]; 1% BBD in vehicle): 2.614 ± .19 mg ± SEM
% Inhibition of hair mass (+SEM) ([1]; 1% BBD): 19.54 ± 6.07%
Length of the hair, visual inspection during treatment ([1]; 1-20% BBD, topical, hamster flank organ): decrease in the length of the hair dependent upon the concentration of the inhibitor
Flank Organ Hair Mass, Treated ([1]; 2% BBD in vehicle): 2.827 ± .23 mg ± SEM
% Inhibition of hair mass (+SEM) ([1]; 2% BBD): -3.63 ± 9.91%
Flank Organ Hair Mass, Treated ([1]; 5% BBD in vehicle): 2.279 ± .28 mg ± SEM
% Inhibition of hair mass (+SEM) ([1]; 5% BBD): 22.83 ± 9.62%
Hair shaft structure, microscopic examination ([1]; 5% and 10% concentrations of BBD): less dramatic but visually obvious changes in the medulla of hair shafts
Flank Organ Hair Mass, Treated ([1]; 10% BBD in vehicle): 1.389 ± .12 mg ± SEM
% Inhibition of hair mass (+SEM) ([1]; 10% BBD): 56.08 ± 4.64%
Flank Organ Hair Mass, Treated ([1]; 20% BBD in vehicle): .333 ± .06 mg ± SEM
% Inhibition of hair mass (+SEM) ([1]; 20% BBD): 87.87 ± 1.54%
Hair shaft structure, microscopic examination ([1]; 20% concentration of BBD): dramatic deterioration of the hair shaft structure including disorganization of the medulla and cuticle

— patent US5143925A, “Alteration of rate and character of hair growth” (priority 1991, dated 1992)
